# Results: ChEMBL document CHEMBL3885861, “Open TG-GATES”
# Species on record: Rattus norvegicus
# Experiment: Open TG-GATES - Regimen: Daily Repeat
# Format: toxicity, organism-based, Sprague-Dawley
# Design: regimen Daily Repeat, gender Male, age 6 weeks
# Settings: in vivo, po, 1000 mg/kg, route gavage, dose level High; for APTT / Bas / Eos / Fbg / Hb / Ht / Lym / MCH / MCHC / MCV / Mono / Neu / PT / Plat / RBC / Ret / WBC: tissue Blood; for KIDNEY_L / KIDNEY_R / KIDNEY_TOTAL: tissue Kidney; for LIVER: tissue Liver; for A/G / ALP / ALT / AST / BUN / CRE / Ca / Cl / DBIL / GLC / IP / K / LDH / Na / PL / RALB / TBIL / TC / TG / TP / gamma-GTP: tissue Plasma
compound,measurement,setting,value
CC(=O)[C@@]1(O)CC[C@H]2[C@@H]3C=C(Cl)C4=CC(=O)CC[C@]4(C)[C@H]3CC[C@@]21C [CHLORMADINONE],TERMINAL_BW,"72 h, time 3 day",236.9 g
same,APTT,"72 h, time 3 day",28 s
same,Bas,"72 h, time 3 day",0%
same,Eos,"72 h, time 3 day",1.2%
same,Fbg,"72 h, time 3 day",321.4 mg/dL
same,Hb,"72 h, time 3 day",13.9 g/dL
same,Ht,"72 h, time 3 day",42%
same,Lym,"72 h, time 3 day",76.8%
same,MCH,"72 h, time 3 day",20.2 pg
same,MCHC,"72 h, time 3 day",33.1%
same,MCV,"72 h, time 3 day",61 fL
same,Mono,"72 h, time 3 day",3%
same,Neu,"72 h, time 3 day",18.2%
same,PT,"72 h, time 3 day",14.4 s
same,Plat,"72 h, time 3 day",126.4 x10_4/uL
same,RBC,"72 h, time 3 day",690 x10_4/ul
same,Ret,"72 h, time 3 day",6.9%
same,WBC,"72 h, time 3 day",122 x10_2/uL
same,KIDNEY_L,"72 h, time 3 day",1 g
same,KIDNEY_R,"72 h, time 3 day",1 g
same,KIDNEY_TOTAL,"72 h, time 3 day",2 g
same,LIVER,"72 h, time 3 day",12.4 g
same,A/G,"72 h, time 3 day",1.2
same,ALP,"72 h, time 3 day",1434.6 IU/L
same,ALT,"72 h, time 3 day",53 IU/L
same,AST,"72 h, time 3 day",71 IU/L
same,BUN,"72 h, time 3 day",17.4 mg/dL
same,CRE,"72 h, time 3 day",0.2 mg/dL
same,Ca,"72 h, time 3 day",11 mg/dL
same,Cl,"72 h, time 3 day",105.2 meq/L
same,DBIL,"72 h, time 3 day",0 mg/dL
same,GLC,"72 h, time 3 day",191.8 mg/dL
same,IP,"72 h, time 3 day",7.7 mg/dL
same,K,"72 h, time 3 day",4.8 meq/L
same,LDH,"72 h, time 3 day",190.2 IU/L
same,Na,"72 h, time 3 day",140.4 meq/L
same,PL,"72 h, time 3 day",198.4 mg/dL
same,RALB,"72 h, time 3 day",3.3 g/dL
same,TBIL,"72 h, time 3 day",0.004 mg/dL
same,TC,"72 h, time 3 day",95.2 mg/dL
same,TG,"72 h, time 3 day",154.2 mg/dL
same,TP,"72 h, time 3 day",6 g/dL
same,gamma-GTP,"72 h, time 3 day",2 IU/L
same,TERMINAL_BW,"[…], time 7 day",245 g
same,TERMINAL_BW,"[…], time 14 day",286.4 g
same,TERMINAL_BW,"[…], time 28 day",342.2 g
same,APTT,"[…], time 7 day",30 s
same,Bas,"[…], time 7 day",0%
same,Eos,"[…], time 7 day",0.8%
same,Fbg,"[…], time 7 day",327.6 mg/dL
same,Hb,"[…], time 7 day",15.1 g/dL
same,Ht,"[…], time 7 day",44.5%
same,Lym,"[…], time 7 day",84.4%
same,MCH,"[…], time 7 day",20.2 pg
same,MCHC,"[…], time 7 day",34%
same,MCV,"[…], time 7 day",59.5 fL
same,Mono,"[…], time 7 day",2.2%
same,Neu,"[…], time 7 day",11.8%
same,PT,"[…], time 7 day",15 s
same,Plat,"[…], time 7 day",127.9 x10_4/uL
same,RBC,"[…], time 7 day",748.8 x10_4/ul
same,Ret,"[…], time 7 day",3.8%
same,WBC,"[…], time 7 day",120.3 x10_2/uL
same,APTT,"[…], time 14 day",28.9 s
same,Bas,"[…], time 14 day",0%
same,Eos,"[…], time 14 day",1%
same,Fbg,"[…], time 14 day",322 mg/dL
same,Hb,"[…], time 14 day",15.2 g/dL
same,Ht,"[…], time 14 day",45%
same,Lym,"[…], time 14 day",80%
same,MCH,"[…], time 14 day",19.7 pg
same,MCHC,"[…], time 14 day",33.9%
same,MCV,"[…], time 14 day",58.1 fL
same,Mono,"[…], time 14 day",2.8%
same,Neu,"[…], time 14 day",14.4%
same,PT,"[…], time 14 day",14.7 s
same,Plat,"[…], time 14 day",100.3 x10_4/uL
same,RBC,"[…], time 14 day",774.6 x10_4/ul
same,Ret,"[…], time 14 day",2.6%
same,WBC,"[…], time 14 day",106.2 x10_2/uL
same,APTT,"[…], time 28 day",29.7 s
same,Bas,"[…], time 28 day",0%
same,Eos,"[…], time 28 day",1%
same,Fbg,"[…], time 28 day",308 mg/dL
same,Hb,"[…], time 28 day",15.8 g/dL
same,Ht,"[…], time 28 day",45.5%
same,Lym,"[…], time 28 day",86.4%
same,MCH,"[…], time 28 day",18.2 pg
same,MCHC,"[…], time 28 day",34.9%
same,MCV,"[…], time 28 day",52.1 fL
same,Mono,"[…], time 28 day",2.2%
same,Neu,"[…], time 28 day",9.6%
same,PT,"[…], time 28 day",15.1 s
same,Plat,"[…], time 28 day",91.7 x10_4/uL
same,RBC,"[…], time 28 day",873 x10_4/ul
same,Ret,"[…], time 28 day",1.9%
same,WBC,"[…], time 28 day",94.9 x10_2/uL
same,KIDNEY_L,"[…], time 7 day",1 g
same,KIDNEY_R,"[…], time 7 day",1 g
same,KIDNEY_TOTAL,"[…], time 7 day",1.9 g
same,KIDNEY_L,"[…], time 14 day",1.1 g
same,KIDNEY_R,"[…], time 14 day",1.1 g
same,KIDNEY_TOTAL,"[…], time 14 day",2.2 g
same,KIDNEY_L,"[…], time 28 day",1.2 g
same,KIDNEY_R,"[…], time 28 day",1.3 g
same,KIDNEY_TOTAL,"[…], time 28 day",2.5 g
same,LIVER,"[…], time 7 day",11 g
same,LIVER,"[…], time 14 day",13.1 g
same,LIVER,"[…], time 28 day",14.6 g
same,A/G,"[…], time 7 day",1.3
same,ALP,"[…], time 7 day",1456.8 IU/L
same,ALT,"[…], time 7 day",45.8 IU/L
same,AST,"[…], time 7 day",71.4 IU/L
same,BUN,"[…], time 7 day",19.6 mg/dL
same,CRE,"[…], time 7 day",0.2 mg/dL
same,Ca,"[…], time 7 day",10.8 mg/dL
same,Cl,"[…], time 7 day",106.8 meq/L
same,DBIL,"[…], time 7 day",0 mg/dL
same,GLC,"[…], time 7 day",187.2 mg/dL
same,IP,"[…], time 7 day",7.2 mg/dL
same,K,"[…], time 7 day",4.6 meq/L
same,LDH,"[…], time 7 day",194 IU/L
same,Na,"[…], time 7 day",140 meq/L
same,PL,"[…], time 7 day",163.8 mg/dL
same,RALB,"[…], time 7 day",3.3 g/dL
same,TBIL,"[…], time 7 day",0.006 mg/dL
same,TC,"[…], time 7 day",83.2 mg/dL
same,TG,"[…], time 7 day",136 mg/dL
same,TP,"[…], time 7 day",6 g/dL
same,gamma-GTP,"[…], time 7 day",2 IU/L
same,A/G,"[…], time 14 day",1.2
same,ALP,"[…], time 14 day",1187.6 IU/L
same,ALT,"[…], time 14 day",45.2 IU/L
same,AST,"[…], time 14 day",71.2 IU/L
same,BUN,"[…], time 14 day",18.6 mg/dL
same,CRE,"[…], time 14 day",0.2 mg/dL
same,Ca,"[…], time 14 day",10.7 mg/dL
same,Cl,"[…], time 14 day",107.6 meq/L
same,DBIL,"[…], time 14 day",0 mg/dL
same,GLC,"[…], time 14 day",195 mg/dL
same,IP,"[…], time 14 day",6.8 mg/dL
same,K,"[…], time 14 day",4.4 meq/L
same,LDH,"[…], time 14 day",160.8 IU/L
same,Na,"[…], time 14 day",142 meq/L
same,PL,"[…], time 14 day",171.2 mg/dL
same,RALB,"[…], time 14 day",3.3 g/dL
same,TBIL,"[…], time 14 day",0.004 mg/dL
same,TC,"[…], time 14 day",81.2 mg/dL
same,TG,"[…], time 14 day",177.4 mg/dL
same,TP,"[…], time 14 day",6.1 g/dL
same,gamma-GTP,"[…], time 14 day",2 IU/L
same,A/G,"[…], time 28 day",1
same,ALP,"[…], time 28 day",1076 IU/L
same,ALT,"[…], time 28 day",58.4 IU/L
same,AST,"[…], time 28 day",70.8 IU/L
same,BUN,"[…], time 28 day",17.4 mg/dL
same,CRE,"[…], time 28 day",0.2 mg/dL
same,Ca,"[…], time 28 day",10.5 mg/dL
same,Cl,"[…], time 28 day",105.2 meq/L
same,DBIL,"[…], time 28 day",0 mg/dL
same,GLC,"[…], time 28 day",194.8 mg/dL
same,IP,"[…], time 28 day",6.1 mg/dL
same,K,"[…], time 28 day",3.9 meq/L
same,LDH,"[…], time 28 day",156 IU/L
same,Na,"[…], time 28 day",142 meq/L
same,PL,"[…], time 28 day",190.4 mg/dL
same,RALB,"[…], time 28 day",3.4 g/dL
same,TBIL,"[…], time 28 day",0.006 mg/dL
same,TC,"[…], time 28 day",97.6 mg/dL
same,TG,"[…], time 28 day",161.6 mg/dL
same,TP,"[…], time 28 day",6.6 g/dL
same,gamma-GTP,"[…], time 28 day",2.6 IU/L
